Where two headings read alike, the source gives them in different places.
Columns and labels:
[1] = tested on: 3D7-strain P. falciparum asexual parasites; test: P. falciparum asexual growth inhibition assay (Pf GIA); assay type: cell-based, Plasmodium falciparum; conditions: dose response confirmation; read-out: Pf asexual growth inhibition assays IC50
Description: The asexual activity of active compounds was tested in dose response with parasite lactate dehydrogenase (LDH) activity used as a readout of parasite viability as described in [Gamo et al. (2010)]. Briefly, 3D7-strain P. falciparum asexual parasites were diluted to 0.25% parasitemia, 2% hematocrit in culture medium composed of RPMI medium with 25 mM HEPES, 2% D-sucrose, 0.3% L-glutamine, 150 μM hypoxanthine plus 5% albumax. 25 μl of parasite inoculum was then dispensed into each well of a 384 well plate containing test compounds and positive (50 μM chloroquine) and negative (DMSO) controls. Plates were incubated for 72 h at 37°C in a 5% CO2, 5%O2, 90% N2 environment before being frozen at −70°C. Plates were then thawed and 70 μl of reaction mix (143 mM sodium L-lactate, 143 mM 3-acetyl pyridine adenine dinucleotide, […] Nitro Blue tetrazolium chloride, […] diaphorase (2.83 U/ml), 0.7% Tween 20, 100 mM Tris–HCl pH 8.0) was added to each well using a Multidrop Combi automated dispenser. Plates were shaken to mix and then absorbance at 650 nm was measured after 10 min incubation at room temperature. Percent inhibition of asexual growth was then calculated with respect to positive and negative controls. Data presented is the mean of three independent biological replicates.

[2] = tested on: P. berghei ookinete development; conditions: for % inhibition, Replicate A / % inhibition, Replicate B: primary screen at 1 μM
[3] = tested on: HepG2 cells; test: HepG2 cytotoxicity assay; conditions: for Pb ODA (this manuscript) HepG2 cytoxicity: HepG2 cytotoxicity listed with the Pb ODA data set (this manuscript); for IC50: read-out: HepG2 cytotoxicity assay IC50, dose response confirmation; for Unified cytotox: unified HepG2 value across the three screens
Description: Briefly, HepG2 cells were seeded onto compound-treated 384 well plates at a density of 2,500 cells per well in Minimal Essential Medium (MEM) plus 10% fetal bovine serum and 1% non-essential amino acids solution (NEAA). Cells were incubated with test compounds or 50 μM doxorubicin (positive) and DSMO (negative) controls at 37°C for 48 h in a humidified 5% CO2 atmosphere. […] Cell viability was then measured in a fluorescent plate reader and percent inhibition calculated with respect to positive and negative controls.

[4] = read-out: Pb ODA (this manuscript) IC50, P. berghei ookinete development assay, this manuscript
[5] = read-out: Pb Ookinete development assay IC50, dose response confirmation
[6] = read-out: Pb ODA IC50, this manuscript

Row | Structure (SMILES) | IC50 [1] | Is compound selective in assay? Pb ODA active? [2] | % inhibition, Replicate A [2] | % inhibition, Replicate B [2] | IC50 [2, 4] | IC50 [2, 5] | Pb ODA (this manuscript) HepG2 cytoxicity [3] | IC50 [3] | Is compound selective in assay? Pb ODA active? ([2]; 1: YES, 0: NO) | IC50 [2, 6] | Unified cytotox [3]
1 | O=C(NC1CCN(CC2(c3ccccc3F)CCCC2)CC1)c1ccn[nH]1 [TCMDC-124837] | 456 nM | 1 (key: 1: YES; 0: NO) | 77.91% | 70.40% | 1490 nM | 1490 nM | 41.69 µM | 41700 nM |  |  | 
2 | Cc1ccc(C2(CN3CCC(NC(=O)c4[nH]ncc4Cl)CC3)CCCCC2)cc1 [TCMDC-124838] | 0.45 nM | 1 (key: 1: YES; 0: NO) | 44.93% | 53.77% | 1430 nM | 1430 nM | 27.23 µM | 27200 nM |  |  | 
3 | Cc1ccc(C2(CN3CCC(NC(=O)c4ccn[nH]4)CC3)CCCCC2)cc1 [TCMDC-124839] | 138 nM | 1 (key: 1: YES; 0: NO) | 81.24% | 59.00% | 970 nM | 968 nM | 43.15 µM | 43200 nM |  |  | 
4 | COc1ccc(NS(=O)(=O)c2cc(NC(=O)Cn3ccccc3=O)ccc2N2CCCCC2)cc1 [TCMDC-124874] | 489 nM |  | 66.12% | 73.52% |  | 1270 nM |  | 100000 nM | 1 (1: YES) | 1270 nM | 100.00 µM
5 | CCc1c(C)nc(-n2nc(C)cc2NC(=O)C(CC)c2ccccc2)[nH]c1=O (stereo not shown) [TCMDC-124935] | 558 nM | 0 (key: 1: YES; 0: NO) | 47.36% | 55.92% | 8710 nM | 8710 nM | 0.95 µM | 950 nM |  |  | 
6 | CCc1c(C)nc(-n2nc(C)cc2NC(=O)c2ccc(OC)cc2OC)[nH]c1=O [TCMDC-124937] | 10 nM | 0 (key: 1: YES; 0: NO) | 65.69% | 36.83% | 1510 nM | 1510 nM | 10.00 µM | 10000 nM |  |  | 
7 | Cc1cc(=O)[nH]c(-n2nc(C)cc2NC(=O)C2(c3ccc(Cl)cc3)CCCC2)n1 [TCMDC-124943] | 967 nM | 0 (key: 1: YES; 0: NO) | 55.02% | 44.00% | 1380 nM | 1380 nM | 3.31 µM | 3310 nM |  |  | 
8 | Cc1ccccc1-c1cc(=O)c2cc(NC(=O)c3cccs3)ccc2o1 [TCMDC-124947] | 408 nM |  | 33.03% | 54.68% |  | 4150 nM |  | 100000 nM | 1 (1: YES) | 4150 nM | 100.00 µM
9 | CCN(CC)c1nc(N)c2c(N)nc3c(c2c1C#N)C(=O)CN3Cc1ccccc1 [TCMDC-125024] | 38 nM |  | 101.60% | 105.52% |  | 618 nM |  | 100000 nM | 1 (1: YES) | 620 nM | 100.00 µM
10 | Cc1cc(C2NC(=O)c3ccccc3N2)c(C)n1-c1ccc2c(c1)OCO2 (stereo not shown) [TCMDC-125051] | 51 nM |  | 87.88% | 98.84% |  | 854 nM |  | 3470 nM | 0 (0: NO) | 850 nM | 3.47 µM
11 | Cc1nc(NC2=NCN(CCCN3CCOCC3)CN2)nc2c(C)cccc12 [TCMDC-125086] | 1820 nM |  | 51.18% | 62.28% | 11100 nM | 11100 nM | 100.00 µM | 100000 nM |  |  | 
12 | CCOC(=O)C1=C(C)NC2=C(C(=O)C(C(=O)OC)C(C)C2)C1c1cc(Br)c(OCC)c(OC)c1 (stereo not shown) [TCMDC-125139] | 1420 nM |  | 3.38% | 50.55% |  | 9060 nM |  | 100000 nM | 1 (1: YES) | 9060 nM | 100.00 µM
13 | COc1cc(Nc2ccc3cc(S(=O)(=O)N4CCCCC4C)ccc3n2)cc(OC)c1OC (stereo not shown) [TCMDC-125163] | 4260 nM |  | 58.55% | 48.73% |  | 1060 nM |  | 24600 nM | 1 (1: YES) | 1060 nM | 24.55 µM
14 | CCOc1cccc(C(=O)Nc2nonc2-c2ccc(OC)c(OC)c2)c1 [TCMDC-125179] | < 0.2 nM |  | 52.92% | 35.19% |  | 7640 nM |  | 6760 nM | 0 (0: NO) | 7640 nM | 6.76 µM
15 | Cc1ccc(S(=O)(=O)N2CCCN(C(=O)c3cc(-c4ccccc4)n[nH]3)CC2)cc1 [TCMDC-125243] | 273 nM | 1 (key: 1: YES; 0: NO) | 53.41% | 33.70% | 5420 nM | 5420 nM | 100.00 µM | 100000 nM |  |  | 
16 | Cc1[nH]c2ccccc2c1C(=O)C(C)Sc1nnc(-c2ccccc2F)o1 (stereo not shown) [TCMDC-125312] | 1270 nM |  | 63.08% | 65.66% |  | 2580 nM |  | 57500 nM | 1 (1: YES) |  | 57.54 µM
17 | CN(C)c1ccc(C=CC(=O)NC(=O)c2ccccc2O)cc1 [TCMDC-125391] | 123 nM |  | 87.61% | 62.62% |  | 210 nM |  | 100000 nM | 1 (1: YES) |  | 100.00 µM
18 | O=C(c1ccco1)N1CCN(c2ccc([N+](=O)[O-])c(NC3CC3)c2)CC1 [TCMDC-125397] | < 0.2 nM |  | 106.00% | 90.44% |  | 1160 nM |  | 2040 nM | 0 (0: NO) | 1160 nM | 2.04 µM
19 | CC(Oc1ccc(NC(=O)c2cccs2)cc1)C(=O)c1ccc(Cl)cc1 (stereo not shown) [TCMDC-125438] | 512 nM | 1 (key: 1: YES; 0: NO) | 52.47% | 58.23% | 1010 nM | 1010 nM | 100.00 µM | 100000 nM |  |  | 
20 | Cc1ccc(Cn2c(N3CCC(C(=O)NCc4ccccn4)CC3)nc3ccccc32)cc1 [TCMDC-125442] | 469 nM |  | 48.51% | 58.27% |  | 1180 nM |  | 69200 nM | 1 (1: YES) | 1180 nM | 69.18 µM
21 | COc1ccc(Cl)cc1NC(=O)CN(C)C(=O)c1cnn(-c2ccccc2)n1 [TCMDC-125457] | 222 nM |  | 53.54% | 37.16% |  | 5110 nM |  | 100000 nM | 1 (1: YES) | 5110 nM | 100.00 µM
22 | O=C1C(c2ccccc2)=C(Nc2cccc(OC(F)(F)C(F)F)c2)c2ccccc21 [TCMDC-125498] | 68 nM | 1 (key: 1: YES; 0: NO) | 29.02% | 52.36% | 1380 nM | 1380 nM | 100.00 µM | 100000 nM |  |  | 
23 | COc1ccc(NC2=C(c3ccccc3)C(=O)c3ccccc32)cn1 [TCMDC-125501] | 385 nM | 1 (key: 1: YES; 0: NO) | 44.98% | 57.32% | 1980 nM | 1980 nM | 100.00 µM | 100000 nM |  |  | 
